Assay results from article PMC10313671, “Accelerating the prediction and discovery of peptide hydrogels with human-in-the-loop” (Nature Communications, 2023).
Where a SMILES comes first, the peptide text is derived from it.

Tests used:
[1] = Peptide hydrogel formation, vial-inverting method; type: physicochemical; design: key to EXP / GELATION: 0: no hydrogel; 1: hydrogel; conditions: for State: ultrasonication, standing 48 h; for State / GELATION / hydrogel formation (in words): vial-inverting method; for Concentration: concentration at which the state was recorded: lowest of 30, 60, 90, 120 mM that gave a gel, 120 mM for non-gelating peptides; for GELATION: 1 = hydrogel, 0 = no hydrogel; for hydrogel formation (in words): representative hydrogels pH between 7.0 to 7.5
Outline: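 Gelation judged by vial inversion, a non-flowing self-supporting sample counting as hydrogel, after 48 h standing. Peptide in water at 30 mM first, escalating to 60, 90 and 120 mM if no gel; pH set to 6.5–8.5 by stepwise 1 N NaOH, each step sonicated briefly.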

[2] = Optical images of aqueous peptide solutions at four concentrations; type: physicochemical; conditions: pH = 7.5
Procedure: [7. What are the pH values of the hydrogels formed? […]
the captions of proper figures.]
We thank the reviewer for the comment. […]
the information of pH values of tetrapeptide hydrogels/solutions in the captions of Fig. 3a and d. […]
Insets: […]
optical images of corresponding solution/suspension (pH=7.5). […]
[8. Is it surprising that both QQQQ and EEEE form suspension at 120 mM? Any explanation from either ML perspective or thermodynamic prospective?]
We thank the reviewer for the comment. From the ML or simulation perspective, both QQQQ and […]
hydrophilicity and lack of sufficient directional hydrogen bonds captured in simulation and prediction. However, the formation of suspension in real experiments indicate the formation of aggregates, and we attribute this to the thermodynamic factor of concentration.
Actually, we also found this phenomenon on RRRR (also contains four charged amino acids), and […]
We compared the optical images of QQQQ and EEEE at four concentrations (30, 60, 90, and 120 […]
transparency decreased (60, 90, and 120 mM) due to the formation of aggregates. As for EEEE, at […]
suspension. We tend to think that as the concentration of charged tetrapeptides increases, the hydrogen bond between peptide molecules and water is strengthened, resulting in the formation of […]
aggregates at high concentrations. […]
description in Lines 214-216 of this main text.
Fig. R1 The optical images of QQQQ and EEEE aqueous solutions at four concentrations (30, 60, […]
with different sizes in an aqueous solution, qualitatively consistent with the morphologies obtained in MD simulations except for RRRR (Fig. 3d, right column), showing different levels of aggregation. Taking the TEM result of RRRR together, we attributed this to the thermodynamic factor of concentration. Finally, we presented a summary of the assembled morphologies of all […]
tetrapeptides tended to form fibers, sheets, or hybrid morphology (70%) in an aqueous solution. […]
[…]
(1 picture or pasted object on this page, not shown here)

[3] = Transmission electron microscope (negative staining) of peptide assemblies; conditions: for Morphology: TEM, negative staining with uranyl acetate, 120 kV; for morphology by TEM (in words): aqueous solution or hydrogel, negative staining
Procedure: We used the negative staining technique to observe the morphologies formed by peptides. A micropipette was used to load 10 μL of sample solution to a carbon-coated copper grid, and we used a piece of filter paper to remove the excess solution. After rinsing the grid with the deionized water, we used uranyl acetate to stain the sample for 1 minute and then rinsed the grid with deionized water again.

[4] = tested on: C57BL/6 mice; type: in vivo, C57BL/6 J mice; conditions: serum day 21
[5] = 120 mM peptide (highest tested) in ultrapure water, pH 6.5-8.5 (1 N NaOH), precipitate, sol, suspension = no gel
[6] = 30 mM peptide in ultrapure water, pH adjusted to 6.5-8.5 with 1 N NaOH, concentration raised 30/60/90/120 mM until gelation
[7] = 60 mM peptide in ultrapure water, pH 6.5-8.5 (1 N NaOH), no gel at 30 mM

Row | Compound | State [1, 5] | Concentration [1] | GELATION ([1]; peptide concentration 120 mM) | Morphology ([3]; line of the table gives 120 mM) | hydrogel formation (in words) [1] | further results
1 | N[C@@H](CCC(=O)O)C(=O)N[C@@H](CCC(=O)O)C(=O)N[C@@H](CCC(=O)O)C(=O)N[C@@H](CCC(=O)O)C(=O)O [EEEE] (H-EEEE-OH) | suspension | 120000 µM | 0 | sheet | – | appearance of aqueous solution (optical image) ([2]; 30 mM): uniform and clear solutions; appearance of aqueous solution (optical image) ([2]; 60 mM): uniform and clear solutions; appearance of aqueous solution (optical image) ([2]; 90 mM): uniform and clear solutions; appearance of aqueous solution (optical image) ([2]; 120 mM): opaque suspension
2 | NC(=O)CC[C@H](NC(=O)[C@H](CCC(N)=O)NC(=O)[C@H](CCC(N)=O)NC(=O)[C@@H](N)CCC(N)=O)C(=O)O [QQQQ] (H-QQQQ-OH) | suspension | 120000 µM | 0 | sheet | – | appearance of aqueous solution (optical image) ([2]; 30 mM): clear solution; appearance of aqueous solution (optical image) ([2]; 60 mM): solution transparency decreased; appearance of aqueous solution (optical image) ([2]; 90 mM): solution transparency decreased; appearance of aqueous solution (optical image) ([2]; 120 mM): solution transparency decreased
3 | CC[C@H](C)[C@H](NC(=O)[C@@H](NC(=O)[C@@H](N)Cc1c[nH]c2ccccc12)[C@@H](C)O)C(=O)N[C@@H](Cc1ccccc1)C(=O)O [WTIF] (H-WTIF-OH) | – | 30000 µM | – | – | hydrogels | State [1, 6]: gel; GELATION ([1]; peptide concentration 30 mM): 1; Morphology ([3]; line of the table gives 30 mM): fibre; morphology by TEM (in words) [3]: entangled nanofibers
4 | CC[C@H](C)[C@H](NC(=O)[C@H](Cc1ccccc1)NC(=O)[C@@H](NC(=O)[C@@H](N)Cc1c[nH]c2ccccc12)C(C)C)C(=O)O [WVFI] (H-WVFI-OH) | suspension | 120000 µM | 0 | aggregates | – | –
5 | CC(C)[C@H](NC(=O)[C@@H](N)Cc1c[nH]c2ccccc12)C(=O)N[C@@H](Cc1ccccc1)C(=O)N[C@@H](Cc1ccc(O)cc1)C(=O)O [WVFY] (H-WVFY-OH) | – | 30000 µM | – | – | hydrogels | State [1, 6]: gel; GELATION ([1]; peptide concentration 30 mM): 1; Morphology ([3]; line of the table gives 30 mM): sheet; morphology by TEM (in words) [3]: interlaced nanosheets
6 | CC[C@H](C)[C@H](NC(=O)[C@@H](NC(=O)[C@@H](NC(=O)[C@@H](N)Cc1c[nH]c2ccccc12)C(C)C)[C@@H](C)CC)C(=O)O [WVII] (H-WVII-OH) | – | 60000 µM | – | – | can form hydrogel | State [1, 7]: gel; GELATION ([1]; peptide concentration 60 mM): 1; Morphology ([3]; line of the table gives 60 mM): fibre
7 | N[C@@H](Cc1c[nH]c2ccccc12)C(=O)N[C@@H](Cc1c[nH]c2ccccc12)C(=O)N[C@@H](CS)C(=O)N1CCC[C@H]1C(=O)O [WWCP] (H-WWCP-OH) | precipitate | 120000 µM | 0 | aggregates | cannot | –
8 | CSCC[C@H](NC(=O)[C@H](Cc1c[nH]c2ccccc12)NC(=O)[C@@H](N)Cc1c[nH]c2ccccc12)C(=O)N[C@@H](Cc1ccccc1)C(=O)O [WWMF] (H-WWMF-OH) | gel | 120000 µM | 1 | rod | – | –
9 | N[C@@H](Cc1c[nH]c2ccccc12)C(=O)N[C@@H](Cc1c[nH]c2ccccc12)C(=O)N[C@@H](Cc1c[nH]c2ccccc12)C(=O)N[C@@H](Cc1c[nH]c2ccccc12)C(=O)O [WWWW] (H-WWWW-OH) | suspension | 120000 µM | 0 | sphere | – | –
10 | N[C@@H](Cc1c[nH]c2ccccc12)C(=O)N[C@@H](Cc1ccc(O)cc1)C(=O)N[C@@H](Cc1ccccc1)C(=O)N[C@@H](Cc1ccccc1)C(=O)O [WYFF] (H-WYFF-OH) | – | 30000 µM | – | – | – | State [1, 6]: gel; GELATION ([1]; peptide concentration 30 mM): 1; Morphology ([3]; line of the table gives 30 mM): fibre
11 | C[C@H](NC(=O)[C@@H](N)Cc1ccc(O)cc1)C(=O)N[C@@H](Cc1c[nH]c2ccccc12)C(=O)N[C@@H](Cc1ccccc1)C(=O)O [YAWF] (H-YAWF-OH) | – | 60000 µM | – | – | can form hydrogels | State [1, 7]: gel; GELATION ([1]; peptide concentration 60 mM): 1; increase of RBD-specific IgG2b response compared with the commercial aluminum adjuvant group ([4]; C57BL/6 mice): around 9.7 fold; production of RBD-specific IgG1 (in words) ([4]; C57BL/6 mice, similar to the aluminum group): significantly enhanced; RBD-specific IgG2c titers (in words) ([4]; C57BL/6 mice, surpassing aluminum group or control group): high IgG2c titers; enhancement of the generation of IgG compared with the RBD group ([4]; […], C57BL/6 mice): 41.6 fold; endpoint titre of RBD-specific IgG in serum ([4]; mean of n = 6 mice, s.c. immunization day 0, 7, 14 with 15 μg RBD alone, with 12.5 μL aluminum adjuvant or 60 mM YAWF hydrogel, […]): 58615.2; Morphology ([3]; line of the table gives 60 mM): fibre; morphology by TEM (in words) [3]: nanofibrous network
12 | C[C@H](NC(=O)[C@@H](N)Cc1ccc(O)cc1)C(=O)N[C@@H](Cc1ccc(O)cc1)C(=O)N[C@@H](Cc1ccc(O)cc1)C(=O)O [YAYY] (H-YAYY-OH) | sol | 120000 µM | 0 | aggregates | – | –
13 | CC[C@H](C)[C@H](NC(=O)[C@H](Cc1ccc(O)cc1)NC(=O)[C@@H]1CCCN1C(=O)[C@@H](N)Cc1ccc(O)cc1)C(=O)O [YPYI] (H-YPYI-OH) | sol | 120000 µM | 0 | aggregates | – | –
14 | CC(C)[C@H](NC(=O)[C@@H](N)Cc1ccc(O)cc1)C(=O)N[C@@H](Cc1ccccc1)C(=O)N[C@@H](C)C(=O)O [YVFA] (H-YVFA-OH) | gel | 120000 µM | 1 | sphere | – | –
15 | N[C@@H](Cc1ccc(O)cc1)C(=O)N[C@@H](Cc1ccc(O)cc1)C(=O)N[C@@H](Cc1ccc(O)cc1)C(=O)N[C@@H](Cc1ccc(O)cc1)C(=O)O [YYYY] (H-YYYY-OH) | sol | 120000 µM | 0 | aggregates | – | –
16 | CCCC | suspension | 120000 µM | 0 | sphere | – | –
